The source of these data is US20090104119A1, “Dendrimer Based Compositions And Methods Of Using The Same” (priority 2004, published 2009).

A short description of data set [1]: Toxicity of dendrimer conjugates and free methotrexate in mice (body weight, histopathology). The class given is in vivo. Particulars: occasional periportal lymphocytes, single-cell necrosis. The protocol: Delivery of targeted nanoparticle therapeutic. Twice weekly, SCID mice with s.c. KB xenografts, starting on day 4 after tumor implantation, received via the tail vein an injection of either targeted or nontargeted conjugate containing methotrexate, a conjugate without methotrexate, free methotrexate, or saline as a control. The compounds were delivered in a 0.2 mL volume of saline per 20 g of mouse. The single dose of methotrexate delivered each time equaled 0.33 mg/kg. The higher doses of 1.67 and 3.33 mg/kg free methotrexate were also tested. The conjugates were delivered at equimolar concentration of methotrexate calculated based on the number of methotrexate molecules present in a nanoparticle. The conjugate without methotrexate was delivered at equimolar concentration of dendrimer. In the initial trial, six groups of mice with five mice in each group received up to 15 injections. In the follow-up trial, mice received up to 28 injections dependent on their survival. The body weights of the mice were monitored throughout the experiment as an indication of adverse effects of the drug. Histopathology of multiple organs was done at the termination of each trial and each time mouse had to be euthanized due to toxic effects or tumor burden. Tissues from lung, heart, liver, pancreas, spleen, kidney, and tumor were analyzed. Additionally, cells were isolated from tumors, stained with targeted fluorescein-labeled conjugate, and tested for the presence of folic acid receptors using flow cytometer.
Toxicity of dendrimer conjugates. […] No gross toxicity, either acutely or chronically up to 99 days, was observed regardless of whether the dendrimer conjugate contained methotrexate. The weight was monitored throughout the experiment and no loss of weight was observed; in fact, the animals gained weight. At each time point, a gross examination and histopathology of the liver, spleen, kidney, lung, and heart were done. No morphologic abnormalities were observed on the histopathology examination.
The remaining experimental groups had very uniform body weight fluctuations nonindicative of toxicity when compared with control groups with saline or conjugate without methotrexate.

In data set [2] the test system is low FAR-expressing KB cells. The data set is described as follows: Cellular uptake/binding of dendrimers in low-FAR KB cells, flow cytometry. The class given is cell-based, human. The protocol: (§1) Cell culture and treatment.
(§2) Flow Cytometry and Confocal Microscopy. The standard fluorescence of the dendrimer solutions was quantified using a Beckman spectrofluorimeter. For flow cytometric analysis of the uptake of the targeted polymer, cells were trypsinized and suspended in PBS containing 0.1% bovine serum albumin (PBSB) and analyzed using a Becton Dickinson FACScan analyzer. The FL1-fluorescence of 10,000 cells was measured and the mean fluorescence of gated viable cells was quantified. Confocal microscopic analysis was performed in cells plated on a glass cover-slip, using a Carl Ziess confocal microscope. Fluorescence and differential interference contrast (DIC) images were collected simultaneously using an argon laser, using the appropriate filters for FITC.
(§3) The effect of free FA on the uptake of the dendrimers was tested in KB cells that express both high and low FAR. The binding of the conjugates to the low FAR-expressing KB cells was 30% of that of the high FAR-expressing cells for both the G5-FITC-FA and G5-FITC-FA-MTX (See, for e.g., FIG. 19, left panel). […] The binding and internalization of the dendrimers to KB cells was assessed by confocal microscopy. KB cells were incubated with 250 nM of the indicated dendrimers for 24 hours and confocal images were taken. Conjugates containing the targeting molecule FA internalized into KB cells within 24 h (See, e.g., FIG. 20).
Time course and dose dependent inhibition of cell growth.
In general terms: Flow cytometry measures light scatter and fluorescence of single cells or particles in a stream.

Data set [3] concerns KB cells which express a high cell surface FA receptor (FAR). The data set is described as follows: Cellular uptake/binding of dendrimers in high-FAR KB cells, flow cytometry. The class given is cell-based, human. The protocol: as §1, §2
The cellular uptake of the dendrimers was measured in KB cells which express a high cell surface FA receptor (FAR). The FA-conjugated dendrimers bound to the cells in a dose-dependent fashion, with 50% binding at 10-15 nM for both the G5-FITC-FA and G5-FITC-FA-MTX, while the control dendrimer G5-FITC was not detected in the KB cells (See, e.g., FIG. 18A). Identical binding curves were obtained for the G5-FITC-FA and G5-FITC-FA-MTX when the fluorescence obtained was normalized for the quenching observed in the standard solutions of the dendrimers (See e.g., FIG. 18B).
as §3

Data set [4] deals with KB cells. The data set is described as follows: Binding and internalization of dendrimers by confocal microscopy. The class given is cell-based, human. Particulars: 250 nM, 24 hours, compared to control conjugates. The protocol:
as §2, §3

The test system of data set [5] is KB cells. The data set is described as follows: Inhibition of cell growth by total cell protein. The method, then:
Cell culture and treatment. KB cells were maintained in folate-free medium containing 10% serum (See, e.g., Quintana et al, Pharm. Res. 19, 1310 (2002)) to provide extracellular FA similar to that found in human serum. Cells were plated in 12-well plates for uptake studies, in 24-well plates for cell growth analysis, and in 96-well plates for XTT assay. Cells were rinsed with FA-free medium containing dialyzed serum and incubated at 37° C. with dendrimer-drug conjugates for the indicated time periods and concentrations. KB cells were also maintained in RPMI medium containing 2 μM FA to obtain cells which express low FAR.
Evaluation of dendrimer cytotoxicity. Cell growth was determined by assay of the total protein in lysates of treated cells using a bicinchoninic acid reagent (PIERCE, and by XTT assay, using a kit from Roche.
Time course and dose dependent inhibition of cell growth. Previous studies have shown that MTX-induced cytotoxicity is detectable in vitro only if the medium is completely deprived of FA (See, e.g., Sobrero & Bertino, Int. J. Cell Cloning 4, 51 (1986)). The effect of the trifunctional dendrimers on cell growth was tested in cells incubated in a FA-deficient medium. Cells were treated with 300 nM conjugates (equivalent of 1500 nM MTX) or 1500 nM free MTX for 1-4 days, and cell proliferation was determined by estimation of cellular protein content. Cells were treated for 2 days with different concentrations of the conjugates or free MTX (the conjugate concentration is given as MTX equivalents, with 5 MTX per dendrimer molecule). KB cells which express high and low FAR were incubated with 30 nM of the dendrimers for 1 hr at 37° C., rinsed, and the fluorescence of cells was determined by flow cytometric analysis (See. e.g., FIG. 21, left panel).
KB cells were treated with 150 or 500 nM MTX in the presence or absence of equimolar concentrations of free FA for 24 h. […] The cells were rinsed to remove the drugs and incubated with fresh medium for an additional 6 d, and total cell protein was determined.

“G5-(Ac)82-(FITC)5-(FA)5-MTX5 [G5-FITC-FA-MTX]”: the “liver slides versus saline controls” value in data set [1] is “did not differ from that of control animals injected with saline”. Also, the “binding to low FAR-expressing KB cells relative to high FAR-expressing cells” value in data set [2] is reported as 30%. In data set [2] (50 μM FA, dendrimer 30 nM), the “effect of free FA on uptake, low-FAR expressing cells” value was “completely blocked”. In addition, in data set [3] (100 nM), the “time to maximal binding” value was no more than 30 min. The “effect of free FA on uptake, high-FAR expressing cells” value in data set [3] (50 μM FA, dendrimer 30 nM) is “completely blocked”. Also, in the data set on KB cells [4], the “cell morphology indicating cytotoxicity” value is “less adherent and rounded up”. In the data set with KB cells [5] (30 and 100 nM conjugate (150 and 500 nM MTX), 24 h then 6 d), the “cytotoxicity compared with equimolar combinations of free FA and MTX” value was “similar”. For the same substance, in the data set on KB cells [5] (FA-deficient medium, 1-4 days, different concentrations), the “inhibition of cell growth (FIGS. 21 and 22)” value is “inhibited cell growth in a time- and dose-dependent fashion”.
